Source: PubChem BioAssay (NCI)
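Exposure lasted 48 hours, with cells grown in 96-well plates and compounds tested at five concentrations. Here, GI50 denotes the concentration required for 50% inhibition of growth. TGI: concentration producing complete growth inhibition.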

Experiments:
Assay in all cases: inhibition of tumour cell growth, NCI panel, 48 h
[1] = test system: HOP-62 NSCLC
[2] = test system: SN12C renal
[3] = test system: SF-295 CNS
[4] = test system: A498 renal
[5] = test system: IGROV1 ovarian
[6] = test system: EKVX NSCLC
[7] = test system: MOLT-4 leukemia
[8] = test system: HCT-116 colon
[9] = test system: SF-268 CNS
[10] = test system: OVCAR-4 ovarian
[11] = test system: 786-0 renal
[12] = test system: DU-145 prostate
[13] = test system: OVCAR-5 ovarian
[14] = test system: TK-10 renal
[15] = test system: T-47D breast
[16] = test system: SK-MEL-28 melanoma
[17] = test system: ACHN renal
[18] = test system: MDA-MB-435
[19] = test system: SK-MEL-5 melanoma
[20] = test system: NCI-H522 lung
[21] = test system: COLO 205 colon
[22] = test system: SK-MEL-2 melanoma
[23] = test system: NCI/ADR-RES ovarian
[24] = test system: MALME-3M melanoma
[25] = test system: A549 NSCLC
[26] = test system: SF-539 CNS
[27] = test system: SNB-19 CNS
[28] = test system: PC-3 prostate
[29] = test system: OVCAR-3 ovarian
[30] = test system: MDA-MB-231 breast
[31] = test system: UACC-62 melanoma
[32] = test system: HCT-15 colon
[33] = test system: BT-549 breast
[34] = test system: HT29 colon
[35] = test system: U251 CNS
[36] = test system: NCI-H226 lung
[37] = test system: SNB-75 CNS
[38] = test system: UACC-257 melanoma
[39] = test system: OVCAR-8 ovarian
[40] = test system: UO-31 renal
[41] = test system: SK-OV-3 ovarian
[42] = test system: SW-620 colon
[43] = test system: LOX IMVI melanoma
[44] = test system: MCF7 breast
[45] = test system: HOP-92 NSCLC
[46] = test system: K-562 leukemia
[47] = test system: HCC-2998 colon
[48] = test system: RXF 393 renal
[49] = test system: NCI-H23 lung
[50] = test system: HS 578T breast
[51] = test system: CAKI-1 renal
[52] = test system: KM12 colon
[53] = test system: RPMI-8226 leukemia
[54] = test system: HL-60(TB) leukemia
[55] = test system: NCI-H460 lung
[56] = test system: SR leukemia

COc1cc(OC)cc(-c2cncn2-c2ccc(-c3nc4cc(OC)c(OC)c(OC)c4s3)cc2)c1
GI50 [1]: 26.4 µM
TGI [1]: > 100 µM
GI50 [2]: 31.9 µM
TGI [2]: > 100 µM
GI50 [3]: 3.64 µM
TGI [3]: 52.9 µM
GI50 [4]: > 100 µM
TGI [4]: > 100 µM
GI50 [5]: 9.6 µM
TGI [5]: > 100 µM
GI50 [6]: 1.87 µM
TGI [6]: > 100 µM
GI50 [7]: 4.1 µM
TGI [7]: > 100 µM
GI50 [8]: 3.76 µM
TGI [8]: > 100 µM
GI50 [9]: 22.1 µM
TGI [9]: > 100 µM
GI50 [10]: 6.67 µM
TGI [10]: > 100 µM
GI50 [11]: 10.3 µM
TGI [11]: > 100 µM
GI50 [12]: 31.1 µM
TGI [12]: > 100 µM
GI50 [13]: > 100 µM
TGI [13]: > 100 µM
GI50 [14]: 26.4 µM
TGI [14]: > 100 µM
GI50 [15]: 4.74 µM
TGI [15]: > 100 µM
GI50 [16]: 31.6 µM
TGI [16]: > 100 µM
GI50 [17]: 11.5 µM
TGI [17]: > 100 µM
GI50 [18]: 6.07 µM
TGI [18]: > 100 µM
GI50 [19]: 2.85 µM
TGI [19]: > 100 µM
GI50 [20]: 11.8 µM
TGI [20]: > 100 µM
GI50 [21]: 3.85 µM
TGI [21]: > 100 µM
GI50 [22]: 6.16 µM
TGI [22]: > 100 µM
GI50 [23]: 11 µM
TGI [23]: > 100 µM
GI50 [24]: 9.59 µM
TGI [24]: 75.1 µM
GI50 [25]: 5.59 µM
TGI [25]: > 100 µM
GI50 [26]: 22 µM
TGI [26]: > 100 µM
GI50 [27]: 19.7 µM
TGI [27]: > 100 µM
GI50 [28]: 3.17 µM
TGI [28]: > 100 µM
GI50 [29]: 6.07 µM
TGI [29]: 26.7 µM
GI50 [30]: 19.2 µM
TGI [30]: > 100 µM
GI50 [31]: 13.8 µM
TGI [31]: > 100 µM
GI50 [32]: 5.72 µM
TGI [32]: > 100 µM
GI50 [33]: 6.71 µM
TGI [33]: > 100 µM
GI50 [34]: 8.33 µM
TGI [34]: > 100 µM
GI50 [35]: 5.44 µM
TGI [35]: > 100 µM
GI50 [36]: 21.7 µM
TGI [36]: > 100 µM
GI50 [37]: 15 µM
TGI [37]: 42.7 µM
GI50 [38]: 20.5 µM
TGI [38]: > 100 µM
GI50 [39]: 13.4 µM
TGI [39]: > 100 µM
GI50 [40]: 1.94 µM
TGI [40]: 58.9 µM
GI50 [41]: 49.9 µM
TGI [41]: > 100 µM
GI50 [42]: 13.7 µM
TGI [42]: > 100 µM
GI50 [43]: 6.93 µM
TGI [43]: > 100 µM
GI50 [44]: 4.02 µM
TGI [44]: > 100 µM
GI50 [45]: > 100 µM
TGI [45]: > 100 µM
GI50 [46]: 3.57 µM
TGI [46]: > 100 µM
GI50 [47]: > 100 µM
TGI [47]: > 100 µM
GI50 [48]: 30.2 µM
TGI [48]: > 100 µM
GI50 [49]: 9.56 µM
TGI [49]: > 100 µM
GI50 [50]: 20.9 µM
TGI [50]: > 100 µM
GI50 [51]: 3.79 µM
TGI [51]: > 100 µM
GI50 [52]: 5.54 µM
TGI [52]: > 100 µM
GI50 [53]: 2.9 µM
TGI [53]: > 100 µM
GI50 [54]: 2.43 µM
TGI [54]: > 100 µM
GI50 [55]: 7.46 µM
TGI [55]: > 100 µM
GI50 [56]: 7.14 µM
TGI [56]: > 100 µM
